The values below come from patent publication US5384406A, “Water-soluble biologically active ammonium salts” (ISP Investments Inc., priority 1993, dated 1995).

Series [1] can be described thus: solubility in water. The protocol:
Example 1 was repeated, except that 2 g of heavy water replaced 150 g of methanol solvent, 0.3 g of Dicamba replaced 30 g Dicamba and 0.16 g of AEP replaced 15.8 g of AEP.
(§1) In a 250 ml round bottom flask 15.5 g (0.482 millimole) of a commercial herbicide, imazaquin* (97.4% pure, having an average molecular weight of 311.4) was suspended in 100 g water. To the suspension, 6.1 g (0.469 millimole) of 98.5% pure AEP was added. […] 2-[4,5-dihydro-4-methyl-4-(methylethyl)-5-oxo-1H-imidazol-2-yl]-3-quinoline e carboxylic acid.
To a solution containing 13 g (0.1 mole) AEP (98.5% pure) dissolved in 30 g water in a 100 ml round bottom flask was added at 25° C. and with constant agitation, 16.9 g (0.1 mole) of water insoluble solid phosphonomethyl glycine.
To one liter of water was added 15.42 g of 2,4 D+7.11 g of mecoprop +1.83 g of 90% pure dicamba. After which 13.83 g AEP was added to the mixture. […] To the above solution was added 9 g of polyalkylene oxide modified by polydimethyl siloxane (Silvelt 7607 wetting agent) from Union Carbide. The mixture was stirred and the total weight was adjusted to 3000 g by adding water.

For series [2], the system named is broad leaf plants and perennial weeds. As to the kind of experiment: evaluation as aquatic herbicide and broad spectrum growth inhibitor, compared with the isopropyl amine salt of phosphonomethyl glycine. It is filed as in vivo. The procedure: A suspension of 169 g of phosphonomethyl glycine in 301 g water was prepared and 130 g 98.5% pure AEP was added slowly with stirring until all of the phosphonomethyl glycine dissolved as the AEP salt. The resulting solution, (containing 28% of the active ingredient expressed as the free acid or 49.5% of the active ingredient expressed as the AEP salt) was evaluated as an aquatic herbicide and as a broad spectrum growth inhibitor for broad leaf plants and perennial weeds and compared with the isopropyl amine salt of phosphonomethyl glycine.

For series [3] the following is noted: aqueous solution after filtration, not adjusted. The protocol: as §1
How the values of series [4] were obtained: A solution containing 25 g of the AEP salt of commercial imazaquin in water was prepared from a suspension of 25 g of imazaquin in 50 g water to which was added a stoichiometric amount of AEP (10.2 g) and an additional 15 g of water. The solution was stirred for 30 minutes after which it was filtered and the pH of the filtrate was adjusted to 7.2.

Structures are written as SMILES. Where two headings read alike, the source gives them in different places.

For `NCCN1CCCC1=O.O=C(O)CNCP(=O)(O)O` [Example 5, N-pyrrolidonyl ethyl ammonium salt of phosphonomethyl glycerine], the soluble in water entry in series [1] (isolated AEP salt) is listed as “more than 50%”. Moreover, the kill entry in series [2] is “significantly higher and more permanent kill”.
Turning to `COc1c(Cl)ccc(Cl)c1C(=O)O` [reference compound], the “solubility in water (in words)” value in series [1] is “very poor solubility”. Further, in series [1] (water), the solubility was less than 1000 µg/mL.
As for `COc1c(Cl)ccc(Cl)c1C(=O)O.NCCN1CCCC1=O` [Example 1, N-pyrrolidonyl ethyl ammonium salt of 3,6-dichloro-l-methoxy benzoic acid], the “solubility in water (in words)” value is reported as “easily dissolved in 60% water” in series [1] (water) and “easily solubilized in water” in series [1] (water, listed as Example 2).
Turning to `CC(C)C1(C)N=C(c2nc3ccccc3cc2C(=O)O)NC1=O.NCCN1CCCC1=O` (stereo not shown) [Example 3, N-pyrrolidonyl ethyl ammonium salt of imazaquin], the “pH of the filtrate” value in series [3] was found to be 7.2. Moreover, the “dissolution of freeze-dried solid in water” value in series [1] (0.1 g in 50 g of water) was “dissolved completely”. Further, the “storage stability of solution” value in series [4] (ambient conditions, stored for 6 months) is “stable under ambient conditions without any precipitation”. In addition, the “precipitation after cooling and reheating” value in series [4] (cooling to 0° C., then to room temperature) was “no precipitation was observed”.
